Measurements as given in publication PMC1175024, “Chondrocytes, synoviocytes and dermal fibroblasts all express PH-20, a hyaluronidase active at neutral pH” (Arthritis Research & Therapy, 2005).

Biological target: T1, PH-20 (sperm adhesion molecule 1), immunopurified from human connective tissue cell layers (Homo sapiens, UniProt P38567)
T1 construct: gene SPAM1; 60-65 kDa; no tag
T1 sequence (P38567 36-490): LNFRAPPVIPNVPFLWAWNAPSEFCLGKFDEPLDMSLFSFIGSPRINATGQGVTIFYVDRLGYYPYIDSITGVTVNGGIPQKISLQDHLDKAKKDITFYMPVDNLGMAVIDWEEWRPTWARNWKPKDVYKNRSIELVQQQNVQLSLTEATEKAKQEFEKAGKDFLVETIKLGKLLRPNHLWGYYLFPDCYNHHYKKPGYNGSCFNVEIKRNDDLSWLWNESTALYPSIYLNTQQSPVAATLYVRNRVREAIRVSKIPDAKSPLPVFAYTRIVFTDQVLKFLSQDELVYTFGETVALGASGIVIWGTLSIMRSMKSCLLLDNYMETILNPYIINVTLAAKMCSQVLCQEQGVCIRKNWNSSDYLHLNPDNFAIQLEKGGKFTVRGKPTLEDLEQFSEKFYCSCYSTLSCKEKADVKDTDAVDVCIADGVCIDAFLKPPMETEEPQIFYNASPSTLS
Assay: hyaluronan substrate gel electrophoresis (zymography)
Format: biochemical
Settings: 5 ug/ml apigenin in DMSO; 0.15 M NaCl, 0.5 mM CaCl2, 7 mM 1,4-saccharolactone; pH 6.5; qualitative inhibition

O=c1cc(-c2ccc(O)cc2)oc2cc(O)cc(O)c12 [apigenin]
activity disappeared: hyaluronidase activity purified from cell layers with the immunoaffinity gel (Api(-), right lane), both disappeared
